Measurements reported in patent publication US9512111B2, “N-sulfonylated tetrahydroquinolines and related bicyclic compounds for inhibition of RORγ activity and the treatment of disease” (Lycera Corporation, priority 2010, dated 2016).
Where two headings read alike, the source gives them in different places.

Tests used:
[1] = biological target: T1, RORγt (Homo sapiens, UniProt P51449); assay: RORγ Reporter Assay (GAL4-UAS luciferase reporter in HEK293 cells); type: cell-based
T1 construct: The resulting GAL4-RORγt-LBD fusion construct was placed under the control of a constitutive cytomegalovirus (CMV) promoter; expressed in transfected cells; host or cells: HEK293
T1 sequence (P51449 269-508 limits assumed): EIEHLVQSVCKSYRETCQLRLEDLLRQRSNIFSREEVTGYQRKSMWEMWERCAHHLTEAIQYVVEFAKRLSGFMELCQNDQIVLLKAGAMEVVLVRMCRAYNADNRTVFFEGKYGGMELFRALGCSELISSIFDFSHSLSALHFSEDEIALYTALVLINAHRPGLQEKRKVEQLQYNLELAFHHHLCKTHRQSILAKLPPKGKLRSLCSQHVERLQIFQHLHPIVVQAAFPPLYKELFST
Experimental: Inhibition of RORγt in cells was determined using a GAL4-UAS reporter system in HEK293 cells employing a luciferase readout. The RORγt DNA binding domain (DBD) was replaced with the heterologous yeast GAL4 DBD using standard recombinant DNA methods. The resulting GAL4-RORγt-LBD fusion construct was placed under the control of a constitutive cytomegalovirus (CMV) promoter by cloning it into the CMV-driven mammalian expression vector pcDNA3.1+− (Promega Corporation, Madison, Wis.).
A transcriptional reporter expression construct was used to monitor GAL4-RORγ activity, which contained five copies of the GAL4 binding site enhancer (UAS) controlling expression of a firefly luciferase reporter. This construct, pGL4.31, is commercially available from Promega Corporation, Madison Wis. Both expression constructs were transfected in bulk into HEK-293 cells using standard lipid-based transfection techniques, which allowed the GAL4 RORγ-LBD fusion protein to drive expression of the luciferase reporter. Control transfections were performed with an empty pCDN3.1+ vector.
The next day, cells were plated into 384 well plates, test compound was added, and the plates were incubated overnight. […] Promega firefly assays kits were used to stabilize the luciferase signal, and the intensity of the luciferase signal was measured using an EnVision Multilabel Plate Reader (Perkin Elmer, Waltham, Mass.).
HEK 293 cells are transfected with GAL4-NR construct (CMV:NR-LBD in pcDNA3.1neo) and the pGL4.31 GAL4-luciferase reporter construct (Promega). For a background control, use empty pcDNA3.1neo and pGL4.31. Transfection protocol is for a single T75 flask performed with Minis Trans-It 293 reagent. A 60 μL aliquot of Trans-IT reagent at room temperature is added drop wise to 1.5 mL of Optimem (Invitrogen). The resulting solution is mixed by inversion and incubated for 5-20 minutes at room temperature. This reagent mixture is added to 10 μg of DNA (5 μg of each expression vector used at a concentration of 1 mg/mL). The solution is mixed by inversion and incubated at room temperature for 20 minutes.
While the Trans-IT reagent and DNA are incubating, harvest HEK-293 cells. Remove media from flasks via aspiration and add enough TrypLE Express (stable Trypsin-like reagent, Invitrogen) to cover the bottom of the flask. The mixture is incubated at room temperature until the cells are visibly loose in the flask (approximately 2-5 minutes). Add an equal volume of complete growth media, and then pipette to achieve a single cell suspension. Spin down 1×10^7 cells and re-suspend the cells in 10 mL of complete growth media (DMEM high glucose/10% dialyzed FBS/pen/strep; Invitrogen). The cells and transfection mixture are added to one T75 flask. The contents of the T75 flax are mixed and incubated overnight at 37° C. and 5% CO2.
After 16-24 hours, cells are harvested and plated for test compound screening. Cells may be harvested as described above. Next, cells are counted and an appropriate number of cells are spun down. Then, cells are aspirated and re-suspended in complete growth media at a concentration of 0.5×10^6 cells/mL to provide a cell suspension. Plate 20 μL of the cell suspension into a white, tissue-culture treated 384 well plate. (10,000 cells/well).
A 10 mM stock solution of test compound in dimethylsulfoxide (DMSO) was diluted to 500× the final test concentration in DMSO, then diluted to 5× the final test concentration with complete growth medium to provide the Test Compound Solution. The concentration of DMSO in the Test Compound Solution was […]. A 5 μL aliquot of Test Compound Solution was added to each test well in the 384 well plate previously plated with the cell suspension. Next, plates are spun briefly and incubated overnight at 37° C. and 5% CO2.
After 16-24 hours, the luciferase assay is performed. Plates and luciferase reagent (e.g. One-Glo® or Dual Glo®; Promega, Madison, Wis.) are brought to room temperature.

[2] = biological target: T2, RORγ-LBD (Homo sapiens, UniProt P51449); assay: RORγ-Ligand Binding Domain TR-FRET Assay; type: biochemical; conditions: benzoxazines, Table 9
T2 construct: HIS-tagged RORγ-LBD was recombinantly expressed in SF9 cells; made in house; host or cells: SF9 cells (baculovirus); unpurified lysate
T2 sequence (P51449 269-508 limits assumed): T1 sequence (P51449 269-508 limits assumed)
In short: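 IC50 derived from the 665 nm/615 nm emission ratio after 4 h to overnight incubation. Mixture: Sf9 lysate with His-tagged LBD (~10 nM final, not purified), SRC1-2 LXXLL biotin peptide at 450 nM, 2 nM europium anti-His antibody, 60 nM APC-streptavidin; buffer 25 mM HEPES pH 7.0, 100 mM NaCl, 0.01% Tween, 0.1% BSA.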

[3] = benzoxazines, Table 9, HEK cells
[4] = Table 7, tetrahydroquinolines, HEK293 cells, read-out: RORγ HEK IC50

Structure (SMILES)	IC50 [1, 3]	IC50 [2]	IC50 [1, 4]
O=C(Nc1ccc2c(c1)N(S(=O)(=O)c1ccc(Cl)cc1)CCC2)c1c(F)cccc1Cl [Compound 5, 2-Chloro-N-[1-(4-chlorobenzenesulfonyl)-1,2,3,4-tetrahydroquinolin-7-yl]-6-fluorobenzamide]	–	–	< 15 µM
CC(C)OCC1CN(S(=O)(=O)c2ccc(F)cc2)c2cc(NC(=O)c3c(F)cccc3F)ccc2O1 (stereo not shown) [VI-115]	< 15 µM	< 15 µM	–
COc1ccc(S(=O)(=O)N2C[C@H](CO)Oc3ccc(NC(=O)c4c(Cl)cccc4Cl)cc32)cn1 [VI-26]	< 15 µM	< 15 µM	–
Cc1nn(C(F)F)cc1S(=O)(=O)N1C[C@H](C)Oc2ccc(NC(=O)c3c(Cl)cccc3C(F)(F)F)cc21 [VI-11]	< 15 µM	< 15 µM	–
CC(C)OCC1CN(S(=O)(=O)c2ccc(F)cc2)c2cc(NC(=O)c3c(F)cccc3Cl)ccc2O1 (stereo not shown) [VI-121]	< 15 µM	< 15 µM	–
O=C(Nc1cc2c(cc1F)O[C@@H](CO)CN2S(=O)(=O)c1ccc(F)cc1)c1c(Cl)cccc1Cl [VI-40]	< 15 µM	< 15 µM	–
O=C(Nc1ccc2c(c1)N(S(=O)(=O)c1ccc(F)cc1)CC(C(F)(F)F)O2)c1c(Cl)cccc1Cl (stereo not shown) [VI-107]	< 15 µM	< 15 µM	–
CCOCC1CN(S(=O)(=O)c2ccc(F)cc2)c2cc(NC(=O)c3c(Cl)cccc3Cl)ccc2O1 (stereo not shown) [VI-108]	< 15 µM	< 15 µM	–
COc1ccc(S(=O)(=O)N2C[C@H](CO)Oc3ccc(NC(=O)c4c(F)cccc4Cl)cc32)cn1 [VI-28]	< 15 µM	< 15 µM	–
CC(C)OCC1CN(S(=O)(=O)c2ccc(F)cc2)c2cc(NC(=O)c3c(Cl)cccc3C(F)(F)F)ccc2O1 (stereo not shown) [VI-123]	< 15 µM	< 15 µM	–
O=C(Nc1c(Cl)cccc1Cl)c1ccc2c(c1)N(S(=O)(=O)c1ccc(F)cc1)CCO2 [VI-126]	< 15 µM	–	–
O=C(Nc1ccc2c(c1)N(S(=O)(=O)c1ccc(Cl)cc1)C[C@H](CO)O2)c1c(F)cccc1Cl [VI-86]	< 15 µM	< 15 µM	–
Cc1cccc(C)c1C(=O)Nc1ccc2c(c1)N(S(=O)(=O)c1ccc(F)cc1)C[C@H](CO)O2 [VI-49]	< 15 µM	< 15 µM	–
CC1(C)CN(S(=O)(=O)c2ccc(F)cc2)c2cc(NC(=O)c3c(Cl)cccc3Cl)ccc2O1 [VI-125]	< 15 µM	< 15 µM	–
O=C(Nc1c(F)cccc1Cl)c1ccc2c(c1)N(S(=O)(=O)c1ccc(F)cc1)CCO2 [VI-127]	< 15 µM	–	–
O=C(Nc1ccccc1Cl)c1ccc2c(c1)N(S(=O)(=O)c1ccc(F)cc1)CCO2 [VI-128]	< 15 µM	–	–
Cc1cc2c(cc1NC(=O)c1c(F)cccc1Cl)N(S(=O)(=O)c1ccc(F)cc1)CCC2 [Compound 6, 2-Chloro-6-fluoro-N-[1-(4-fluorobenzenesulfonyl)-6-methyl-1,2,3,4-tetrahydroquinolin-7-yl]benzamide]	–	–	< 15 µM

The next lines start with the values.

IC50 [1, 3]	IC50 [2]	IC50 [1, 4]	Structure (SMILES)
< 15 µM	< 15 µM	–	N#Cc1cccc(S(=O)(=O)N2C[C@H](CO)Oc3ccc(NC(=O)c4c(Cl)cccc4Cl)cc32)c1 [VI-63]
< 15 µM	< 15 µM	–	CCOCC1CN(S(=O)(=O)c2ccc(F)c(F)c2)c2cc(NC(=O)c3c(Cl)cccc3Cl)ccc2O1 (stereo not shown) [VI-98]
< 15 µM	< 15 µM	–	O=C(Nc1ccc2c(c1)N(S(=O)(=O)c1ccc(F)cc1)CCO2)c1c(Cl)cccc1Cl [VI-129]
< 15 µM	< 15 µM	–	Cc1cccc(F)c1C(=O)Nc1ccc2c(c1)N(S(=O)(=O)c1ccc(F)cc1)C[C@H](CO)O2 [VI-44]
< 15 µM	< 15 µM	–	O=C(Nc1ccc2c(c1)N(S(=O)(=O)c1ccc(F)cc1)C[C@H](CF)O2)c1c(F)cccc1Cl [Compound 22, (R)-2-Chloro-6-fluoro-N-(2-(fluoromethyl)-4-((4-fluorophenyl)sulfonyl)-3,4-dihydro-2H-benzo[b][1,4]oxazin-6-yl)benzamide]
< 15 µM	< 15 µM	–	COCC1CN(S(=O)(=O)c2ccc(F)cc2)c2cc(NC(=O)c3c(Cl)cccc3Cl)ccc2O1 (stereo not shown) [VI-105]
< 15 µM	< 15 µM	–	O=C(Nc1ccc2c(c1)N(S(=O)(=O)c1ccc(F)cc1)CC(CN(CC1CC1)CC1CC1)O2)c1c(F)cccc1Cl (stereo not shown) [VI-37]
< 15 µM	< 15 µM	–	CCOCC1CN(S(=O)(=O)c2ccc(Cl)cc2)c2cc(NC(=O)c3c(Cl)cccc3C(F)(F)F)ccc2O1 (stereo not shown) [VI-90]
< 15 µM	< 15 µM	–	O=C(Nc1ccc2c(c1)N(S(=O)(=O)c1ccc(F)cc1)C[C@H](CO)O2)c1c(F)cccc1C(F)(F)F [VI-82]
< 15 µM	< 15 µM	–	O=C(Nc1ccc2c(c1)N(S(=O)(=O)c1ccc(F)cc1)CC(CNCC1CC1)O2)c1c(F)cccc1Cl (stereo not shown) [VI-32]
< 15 µM	< 15 µM	–	O=C(Nc1cc2c(cc1F)O[C@@H](CO)CN2S(=O)(=O)c1ccc(F)cc1)c1c(Cl)cccc1C(F)(F)F [VI-41]
< 15 µM	< 15 µM	–	O=C(Nc1ccc2c(c1)N(S(=O)(=O)c1ccc(Cl)cc1)C[C@H](CO)O2)c1c(F)cccc1F [VI-87]
< 15 µM	< 15 µM	–	O=C(Nc1ccc2c(c1)N(S(=O)(=O)c1ccc(Cl)cc1)C[C@@H](CO)O2)c1c(Cl)cccc1Cl [VI-52]
< 15 µM	< 15 µM	–	O=C(Nc1cc2c(cc1F)O[C@@H](CO)CN2S(=O)(=O)c1ccc(F)cc1)c1c(F)cccc1Cl [VI-47]
< 15 µM	< 15 µM	–	Cc1cccc(Cl)c1C(=O)Nc1ccc2c(c1)N(S(=O)(=O)c1cccc(C#N)c1)C[C@H](CO)O2 [VI-43]
< 15 µM	< 15 µM	–	Cc1nn(C(F)F)cc1S(=O)(=O)N1C[C@H](C)Oc2ccc(NC(=O)c3c(F)cccc3C(F)(F)F)cc21 [VI-10]
< 15 µM	< 15 µM	–	O=C(Nc1ccc2c(c1)N(S(=O)(=O)c1ccccc1)C[C@H](CO)O2)c1c(F)cccc1Cl [VI-24]
< 15 µM	< 15 µM	–	COCC1CN(S(=O)(=O)c2cccc(C#N)c2)c2cc(NC(=O)c3c(F)cccc3Cl)ccc2O1 (stereo not shown) [VI-101]
< 15 µM	< 15 µM	–	CCOCC1CN(S(=O)(=O)c2ccc(F)c(F)c2)c2cc(NC(=O)c3c(Cl)cccc3C(F)(F)F)ccc2O1 (stereo not shown) [VI-88]
< 15 µM	< 15 µM	–	COCC1CN(S(=O)(=O)c2cccc(C#N)c2)c2cc(NC(=O)c3c(F)cccc3F)ccc2O1 (stereo not shown) [VI-103]
< 15 µM	< 15 µM	–	O=C(Nc1ccc2c(c1)N(S(=O)(=O)c1ccc(F)cc1)C[C@@H](CO)O2)c1c(F)cccc1Cl [VI-116]
< 15 µM	< 15 µM	–	CCOCC1CN(S(=O)(=O)c2ccc(Cl)cc2)c2cc(NC(=O)c3c(F)cccc3F)ccc2O1 (stereo not shown) [VI-94]
